Literature values in patent US20210085711A1 (Japan Tobacco Inc., priority 2017, published 2021).

System: patients
Settings: investigation up to the approval; cited from earlier work

sodium ferrous citrate
expression rate of nausea and vomiting: about 13%
